Experimental data reported in patent US20030073837A1, “3-HETEROARYLIDENYL-2-INDOLINONE COMPOUNDS FOR MODULATING PROTEIN KINASE ACTIVITY AND FOR USE IN CANCER CHEMOTHERAPY” (priority 1998, published 2003).
Where two headings read alike, the source gives them in different places.

What was measured:
FLK-1 receptor = experiment: Cellular-based assay of receptor phosphorylation following VEGF (FLK-1 ELISA); format: cell-based
[1] = test system: endothelial cells induced by VEGF; experiment: In vitro proliferation of endothelial cells induced by VEGF (HUV-EC-C assay); format: cell-based, human
Method: The following protocol may also be used to measure a compound's activity against PDGF-R, FGF-R, VEGF, aFGF or Flk-1/KDR, all of which are naturally expressed by HUV-EC cells.
1. Wash and trypsinize HUV-EC-C cells (human umbilical vein endothelial cells, (American Type Culture Collection; catalogue no. 1730 CRL). Wash with Dulbecco's phosphate-buffered saline (D-PBS; obtained from Gibco BRL; catalogue no. 14190-029) 2 times at about 1 ml/10 cm^2 of tissue culture flask. Trypsinize with 0.05% trypsin-EDTA in non-enzymatic cell dissociation solution (Sigma Chemical Company; catalogue no. C-1544). The 0.05% trypsin is made by diluting 0.25% trypsin/1 mM EDTA (Gibco; catalogue no. 25200-049) in the cell dissociation solution. Trypsinize with about 1 ml/25-30 cm^2 of tissue culture flask for about 5 minutes at 37° C. After cells have detached from the flask, add an equal volume of assay medium and transfer to a 50 ml sterile centrifuge tube (Fisher Scientific; catalogue no. 05-539-6).
2. Wash the cells with about 35 ml assay medium in the 50 ml sterile centrifuge tube by adding the assay medium, centrifuge for 10 minutes at approximately 200×g, aspirate the supernatant, and resuspend with 35 ml D-PBS. Repeat the wash two more times with D-PBS, resuspend the cells in about 1 ml assay medium/15 cm^2 of tissue culture flask. […]

[2] = test system: a variety of tumor cell lines; experiment: Direct inhibitory effect on tumor cell lines in vitro; format: cell-based; conditions: concentrations up to 50 μM
[3] = test system: a variety of tumor cell lines subcutaneously implanted; experiment: Subcutaneous tumor implants in immunocompromised mice; format: in vivo
Source text: (§1) The ability of human tumors to grow as xenografts in athymic mice (e.g., Balb/c, nu/nu) provides a useful in vivo model for studying the biological response to therapies for human tumors. Since the first successful xenotransplantation of human tumors into athymic mice, (Rygaard and Povlsen, 1969, Acta Pathol. Microbial. Scand. 77:758-760), many different human tumor cell lines (e.g., mammary, lung, genitourinary, gastrointestinal, head and neck, glioblastoma, bone, and malignant melanomas) have been transplanted and successfully grown in nude mice. The following assays may be used to determine the level of activity, specificity and effect of the different compounds of the present invention. […]
(§2) Cell lines are grown in appropriate medium (for example, MEM, DMEM, Ham's F10, or Ham's F12 plus 5%-10% fetal bovine serum (FBS) and 2 mM glutamine (GLN)). […] All cell lines are routinely subcultured twice a week and are negative for mycoplasma as determined by the Mycotect method (Gibco).
(§3) Cells are harvested at or near confluency with 0.05% Trypsin-EDTA and pelleted at 450×g for 10 min. […] Tumor growth is measured over 3 to 6 weeks using venier calipers. Tumor volumes are calculated as a product of length×width×height unless otherwise indicated. P values are calculated using the Students t-test. […]

human melanoma cells = experiment: Dose response study, human melanoma cells subcutaneous in athymic mice; format: in vivo; conditions: daily administration, doses as low as 1 mg/kg/day
Source text: as §1, §2, §3

tumor growth = experiment: Less frequent intraperitoneal dosing studies in athymic mice; format: in vivo; conditions: for tumor growth inhibition: intraperitoneal
Source text: as §1, with “invention. Three general types of assays are useful for evaluating compounds: cellular/catalytic, cellular/biological and in vivo. The object of the cellular/catalytic assays is to determine the effect of a compound on the ability of a TK to phosphorylate tyrosines on a known substrate in a cell. The object of the cellular/biological assays is to determine the effect of a compound on the biological response stimulated by a TK in a cell. The object of the in vivo assays is to determine the effect of a compound in an animal model of a particular disorder such as cancer.” for “invention.”
as §2, §3

[4] = test system: tumor cells implanted under the serosa of the colon; experiment: Tumor cells surgically implanted under the serosa of the colon; format: in vivo, mice
Method: 8 week old nude mice (female) (Simonsen Inc.) are used as experimental animals. Implantation of tumor cells can be performed in a laminar flow hood. For anesthesia, Xylazine/Ketamine Cocktail (100 mg/kg ketamine and 5 mg/kg Xylazine) are administered intraperitoneally. A midline incision is done to expose the abdominal cavity (approximately 1.5 cm in length) to inject 10^7 tumor cells in a volume of 100 μl medium. The cells are injected either into the duodenal lobe of the pancreas or under the serosa of the colon. The peritoneum and muscles are closed with a 6-0 silk continuous suture and the skin is closed by using wound clips. Animals are observed daily.
After 2-6 weeks, depending on gross observations of the animals, the mice are sacrificed, and the local tumor metastases to various organs (lung, liver, brain, stomach, spleen, heart, muscle) are excised and analyzed (measurement of tumor size, grade of invasion, immunochemistry, in situ hybridization determination, etc.).

[5] = test system: ATP binding site of the receptor tyrosine kinase; experiment: Washout experiments in vitro
[6] = In vivo intravenous pharmacokinetics, mice
[7] = In vivo intravenous pharmacokinetics, rats
[8] = In vivo intravenous pharmacokinetics, dogs
[9] = Subchronic toxicokinetic study (28 day toxicity study), rats; format: in vivo
[10] = Subchronic toxicokinetic study (28 day toxicity study), dogs; format: in vivo
[11] = Whole body autoradiography and excretion after intravenous injection; format: in vivo; conditions: in 24 hours, 14C-labeled
[12] = test system: β-450 liver enzymes (CYP1A2 and CYP3A4); experiment: In vitro metabolism studies; format: in vitro ADME
[13] = Phase I dose escalation studies, toxicity; format: in vivo; conditions: patients treated with up to 52 weeks of treatment
[14] = Phase 1 study pharmacokinetics in patients with advanced malignancies; conditions: for half-life: plasma, intravenous
[15] = test system: metastatic colorectal cancer; conditions: single agent; cited from earlier work
[16] = cited from earlier work
[17] = test system: advanced metastatic colorectal cancer; conditions: cited from earlier work

Cc1cc(C)c(/C=C2\C(=O)Nc3ccccc32)[nH]1 [3-[(2,4-dimethylpyrrol-5-yl)methylidenyl]-2-indolinone]
receptor phosphorylation that follows the interaction of VEGF with its receptor (FLK-1 receptor): inhibit the receptor phosphorylation
IC50 ([1]; Homo sapiens, Endothelial cell, read-out: IC50, inhibition of in vitro proliferation of endothelial cells induced by VEGF): ~70 nM
exposure to drug after which detectable activity is first observed ([1]; time-dependent increase in potency): 5 min
direct inhibitory effects on tumor cell lines [2]: no direct inhibitory effects
suppression of tumor growth with delayed administration ([3]; administration delayed until tumors approximately 50 mm^3, versus start on Day 1): equivalent efficacy
inhibition of tumor growth ([3]; daily intraperitoneal dosing 12.5-25 mg/kg/day for 28 days): 30-80%
inhibition of human melanoma cells (human melanoma cells): dose-dependent inhibition
tumor growth inhibition and toxicity with interval dosing (tumor growth; dosing at 3 to 4 day intervals): sufficient to inhibit tumor growth without toxicity
tumor growth inhibition (tumor growth; daily dosing): 68%
tumor growth inhibition (tumor growth; twice weekly dosing for four weeks): 77%
growth of tumor cells implanted under the serosa of the colon ([4]; daily administration 25 mg/kg/day): significantly inhibit the growth
tumor vascularization ([4]; pale appearance of tumors in treated animals): decreased vascularization
target half-life [5]: 96 h
elimination of the parent compound from the circulation [6]: rapid elimination
elimination of the parent compound from the circulation ([7]; intravenous): rapid elimination
elimination half-life versus dose ([7]; intravenous 29.5-97.9 mg/m^2): linearly increases as the dose increased
increase of AUC ([7]; intravenous 29.5-97.9 mg/m^2, with a 3-fold increase in dose): 10 fold
elimination of the parent compound from the circulation [8]: rapid elimination
accumulation in plasma upon repeated administration [9]: did not accumulate in plasma
accumulation in plasma upon repeated administration [10]: did not accumulate in plasma
excreted in feces [11]: 72%
excreted in urine [11]: 16%
total dose recovered [11]: 92 % of the total administered dose
metabolizing enzymes [12]: metabolized via β-450 liver enzymes, most probably via CYP1A2 and CYP3A4
cumulative toxicity [13]: no cumulative toxicity was observed
increase of the rate of clearance ([14]; after eight infusions, all patients): 50-300%
total distributive volume ([14]; calculated by a one-compartment model): 53.6 ± 11.3 L
clearance versus dose ([14]; doses 4.4-190 mg/m^2): independent of dose
AUC and CMAX versus dose ([14]; doses tested in humans to date): increase linearly with dose
individual clearance calculated based on BSA ([14]; human, in vivo): 41.8±22.1 L/hour/m2
half-life ([14]; human, alpha half-life, mean, doses 4.4-190 mg/m^2): 5.8 ± 1.9 min
half-life ([14]; human, beta half-life or elimination phase, mean, doses 4.4-190 mg/m^2): 43.4 ± 21.9 min
half-life ([14]; human, beta half-life or elimination phase, range, doses 4.4-190 mg/m^2): 10 to 111 min
half-life ([14]; human, half-life in humans, doses 4.4-190 mg/m^2, preliminary): ~60 min

O=c1[nH]cc(F)c(=O)[nH]1 [fluorouracil, 5-fluoro-2,4 (1H,3H)-pyrimidinedione]
median survival [15]: six
response rate [15]: about 15%
excreted in urine ([16]; in vivo): Less than 10%
plasma levels ([16]; within 2 hours, intravenous bolus 370 to 720 mg/m^2): below 1 μM
median survival time ([17]; fluorouracil alone 500 mg/m^2): 7.7 months
response rate ([17]; fluorouracil alone 500 mg/m^2 daily for 5 days every 28-35 days): 10%
